The record followed here is US20230090446A1, “ANTISENSE OLIGONUCLEOTIDE TARGETING LINC00518 FOR TREATING MELANOMA” (UNIVERSITE DE STRASBOURG, priority 2020, published 2023).

This assay deals with LINC00518. The assay can be described thus: LINC00518 expression by RT-qPCR in cells treated with MAPK pathway inhibitors. The settings on record: 501Mel and A375 cells, between 12-72 hours after treatment.

Method: Activated Caspase 3 was measured by FACS.
Samples were taken at the indicated time points, total RNA was extracted, retrotranscribed and analyzed by qPCR for LINC00518 expression. B. LINC00518 RNA levels were quantified from scRNAseq of melanoma patient derived xenotransplants (PDXs) treated with Dabrafenib and Trametinib (GSE116237). […] LINC00518 RNA levels were quantified from RNA sequencing of melanoma patients treated with Durvalumab and Trametinib for 15 days (GSE158403). […] Cytoplasmic and mitochondrial RNA fractions were extracted, retrotranscribed and analyzed by qPCR for LINC00518 expression. […] Oxygen consumption rate (OCR) was measured using Agilent Seahorse. Basal and Maximal OCR and reserve capacity were calculated on the basis of OCR changes upon oligomycin (oligo), FCCP and Rotenone A (RotA) administration to the cells.
Total mRNA isolation was performed using the Genelute Mammalian Total RNA Miniprep Kit (Sigma) following manufacturer instructions, or using Trizol and isopropanol precipitation. […] Total and fractionated RNAs were treated with DNAsel following the TurboDnase free kit instructions (Thermofisher) and reversed transcribed using Superscript IV reverse transcriptase (Thermofisher) following manufacturer instructions. qRT-PCR was carried out with SYBR Green I (Roche) and monitored by a LightCycler 480 (Roche). […]

In the case of `CC(C)(C)c1nc(-c2cccc(NS(=O)(=O)c3c(F)cccc3F)c2F)c(-c2ccnc(N)n2)s1` [Dabrafenib], the LINC00518 expression result is “up-regulation”.
